Experimental data published in patent US11345659B2, “Pipecolic esters for inhibition of the proteasome” (THE BOARD OF REGENTS OF THE UNIVERSY OF TEXAS SYSTEM, priority 2018, dated 2022).
pIC50: −log10 of the molar value.

Legend:
Type in all cases: biochemical
[1] = target: T1, 20 S human housekeeping proteasome (Homo sapiens, UniProt P25787+P25789); assay: ChT-L peptidase activity of 20 S proteasome activated with Rpt5 peptide; settings: ChT-L, 20 S activated with Rpt5 peptide; for pIC50: Suc-LLVY-AMC substrate, read-out: IC50
T1 construct: purified from erythrocytes; purchased Enzo Life Sciences, Inc. (Farmingdale, N.Y.); host or cells: human erythrocytes
Description: (§1) Human housekeeping 20 S and 26 S and complexes purified from erythrocytes were purchased from Enzo Life Sciences, Inc. (Farmingdale, N.Y.). The 1 mg/ml stock 20 S proteasome was diluted to 0.2 mg/ml working solution in 50 mM Tris/HCl, pH 8 containing 20% glycerol (dilution buffer). For the 26 S proteasome stock, the dilution buffer was supplemented with 2 mM ATP, 1 mM MgCl2, and 1 mM DTT (dithiothreitol). The ChT-L peptidase activity was measured as arbitrary intensity units of fluorescence emitted by 7-amino-4-methylcoumarin (AMC) released from the canonical model peptide substrate succinyl-LeuLeuValTyr-methylcoumarin (SucLLVY-MCA; Bachem Bioscience Inc., Philadelphia, Pa.), used at concentration of 100 μM. Free AMC (Sigma-Aldrich, St. Louis, Mo.) was used as the standard. The Rpt5 C-terminal peptide was synthesized (standard solid-phase peptide chemistry) and purified to at least 98% purity by GenScript (Piscataway, N.J.). The Rpt5 peptide and the peptide substrate were dissolved in dimethylsulfoxide (DMSO) and such stock solutions were stored at −20° C. The total concentration of DMSO in final reaction mixtures never exceeded 3% (vol/vol).
The reaction was carried out in 96-well plates, in 100 μL of reaction mixture, for 1 hour at 37° C. In the case of 20 S proteasome, the reaction mixture consisted of 45 mM Tris/HCl, pH 8, 100 mM KCl with premixed 10 μM Rpt5 peptide and 100 μM Suc-LLVY-MCA, to which 200 ng (nearly […]) of proteasome and desired concentration of tested compounds in 1 μL of DMSO were added. To test the activity of 26 S proteasome under conditions challenging coordination of the three pairs of peptidase active centers, a mixture of three canonical substrates specific for the ChT-L (SucLLVY-MCA), trypsin-like (T-L; BocLRR-MCA) and caspase-like (Casp-L; Z-LLE-MCA) was used with each of the substrates at 33.3 μM (100 μM of the total substrate concentration). The reaction mixture in this case consisted of 50 mM Tris/HCl, pH 8, 20 mM NaCl, premixed with the substrates and 2 mM ATP, to which 200 ng (nearly 0.1 nmol) of the 26 S working solution and desired concentration of tested compounds in 0.5 μL of DMSO were added. The reaction rates were calculated from a linear segment of kinetic curves constructed from measurements in 1-minutes intervals (Fluoroskan Ascent plate reader; Thermo Fisher Scientific Inc., Waltham, Mass.). Reaction rates were calculated using a linear fit executed by Slope Analyzer and Enzyme Kinetics applications launched within Origin Pro 2017 (OriginLab). Specific activity of the control 20 S proteasome activated with the Rpt5 peptide was in the range of 1.4 to 2.3 nanomoles of AMC product released by 1 mg of 20 S per second (1.95±0.24; n=18). Specific activity of the control 26 S proteasome challenged with three substrates reached on average 0.28±0.06 nanomoles of AMC product released by 1 mg of the enzyme per second (n=6). For comparison, degradation of the canonical Suc-LLVY-MCA substrate by the control 26 S proteasome preceded with a rate in the range of 0.6-0.8 nanomoles of AMC released per mg of the enzyme per second. The data are presented as mean±SD or as a representative set from at least 3 independent experiments.
The compounds were evaluated using the 20 S human housekeeping proteasome. It was activated with the Rpt5 derived 10-residue peptide that contains the C-terminal HbYX (hydrophobic-Tyr-any AA) motif activating the proteasome in trans and to some extend mimic the activation by the 19 S regulatory particle (Osmulski and Gaczynska (2013) Molecular pharmacology 84: 104-113; Smith et al. (2006) J. Struct. Biol. 156: 72-83; Smith et al. (2007) Mol. Cell 27: 731-744). Proteolytic activity was monitored over time using a fluorogenic peptide substrate specific for the chymotrypsin-like active center (ChT-L, Suc-LLVY-AMC) in the presence of a concentration range of the inhibitors. […]

26 S proteasome = target: T2, 26 S proteasome (Homo sapiens, UniProt P25787+P25789); assay: 26 S proteasome challenged with mixture of three substrates (surrogate proteinase assay); settings: mixture of ChT-L, T-L and Casp-L substrates, 33.3 μM each; read-out: IC50, 26 S proteasome with substrates for all three peptidases
T2 construct: purified from erythrocytes; purchased Enzo Life Sciences, Inc. (Farmingdale, N.Y.); host or cells: human erythrocytes
Description: as §1
The reaction was carried out in 96-well plates, in 100 μL of reaction mixture, for 1 hour at 37° C. In the case of 20 S proteasome, the reaction mixture consisted of 45 mM Tris/HCl, pH 8, 100 mM KCl with premixed 10 μM Rpt5 peptide and 100 μM Suc-LLVY-MCA, to which 200 ng (nearly […]) of proteasome and desired concentration of tested compounds in 1 μL of DMSO were added. […] The reaction rates were calculated from a linear segment of kinetic curves constructed from measurements in 1-minutes intervals (Fluoroskan Ascent plate reader; Thermo Fisher Scientific Inc., Waltham, Mass.). Reaction rates were calculated using a linear fit executed by Slope Analyzer and Enzyme Kinetics applications launched within Origin Pro 2017 (OriginLab). […]

[2] = target: T3, latent core 20 S proteasome (Homo sapiens, UniProt P25787+P25789); assay: Competition of compound 3 with tRpt6 peptide, ChT-L activity of latent core; settings: 2 μM tRpt6
T3 construct: purified from erythrocytes; purchased Enzo Life Sciences, Inc. (Farmingdale, N.Y.); host or cells: human erythrocytes
Source text: According to the most recent model of the 26 S proteasome dynamic cycle, Rpt6 succeeds the Hb-Y—X containing anchor subunits Rpt5, Rpt3, and Rpt2 in docking into the α face pockets and promoting an intermediate conformation between latent and activated (open gate) proteasomes (Dong et al. ([…]) Nature 565(7737): 49-55). […] For comparison, no competition between tRpt5, expected to occupy the α5/α6 pocket, and compound 3 was detected.
Referring to FIG. 4, the C-terminal peptide derived from Rpt6 subunit compromises inhibition of the ChT-L activity of the latent core by the compound 3; however, only when added to the proteasome prior to the inhibitor. […] 1 μM compound 3 and 2 μM tRpt6 were tested. Mean±SD; n=3 to 6.

Row | pIC50 [1] | ChT-L inhibitory activity in words [1] | pIC50 (26 S proteasome) | effect of peptide alone on proteasome activity [2] | Compound
1 | 4.94 |  |  |  | COc1cc(CCCOC(=O)C2CCCCN2C(=O)OCc2ccccc2)cc(OC)c1OC (racemic) [Compound 2, 1-benzyl 2-(3-(3,4,5-trimethoxyphenyl)propyl)piperidine-1,2-dicarboxylate]
2 | 4.70 | significantly reduced its activity |  |  | COc1cc(COC(=O)[C@@H]2CCCCN2C(=O)OCc2ccccc2)cc(OC)c1OC (stereo in doubt) [Compound 8, 1-benzyl 2-(3,4,5-trimethoxybenzyl) piperidine-1,2-dicarboxylate]
3 | 4.82 |  |  |  | COc1cc(CCCOC(=O)[C@@H]2CCCCN2C(=O)OCC(C)C)cc(OC)c1OC [Compound 4, 1-isobutyl 2-(3-(3,4,5-trimethoxyphenyl)propyl) (S)-piperidine-1,2-dicarboxylate]
4 | < 4.30 | completely abrogated activity |  |  | COC(=O)N1CCCC[C@H]1C(=O)OCCCc1cc(OC)c(OC)c(OC)c1 [Compound 5, 1-methyl 2-(3-(3,4,5-trimethoxyphenyl)propyl) (S)-piperidine-1,2-dicarboxylate]
5 | 4.83 |  |  |  | COc1cc(CCCOC(=O)[C@@H]2CCCN(C(=O)OCc3ccccc3)C2)cc(OC)c1OC [Compound 6, 1-benzyl 3-(3-(3,4,5-trimethoxyphenyl)propyl) (R)-piperidine-1,3-dicarboxylate]
6 | 4.70 | significantly reduced its activity |  |  | COc1cc(CCOC(=O)[C@@H]2CCCCN2C(=O)OCc2ccccc2)cc(OC)c1OC [Compound 7, 1-benzyl 2-(3,4,5-trimethoxyphenethyl) (S)-piperidine-1,2-dicarboxylate]
7 | 5.59 |  | < 4.22 |  | O=C(OCCCc1ccccc1)[C@@H]1CCCCN1C(=O)OCc1ccccc1 [Compound 9, 1-benzyl 2-(3-phenylpropyl) (S)-piperidine-1,2-dicarboxylate]
8 | < 4.30 | inactive |  |  | CCCOC(=O)[C@@H]1CCCCN1C(=O)OCc1ccccc1 [Compound 10, 1-benzyl 2-propyl (S)-piperidine-1,2-dicarboxylate]
9 | < 4.30 | inactive |  |  | O=C(O)[C@@H]1CCCCN1C(=O)OCc1ccccc1 [Compound 11, 1-((benzyloxy)carbonyl) (S)-piperidine-2-carboxylic Acid]
10 | 4.62 | only had modest activity |  |  | COc1cc(CCCOC(=O)[C@@H]2CCCN2C(=O)OCc2ccccc2)cc(OC)c1OC [Compound 12, 1-benzyl 2-(3-(3,4,5-trimethoxyphenyl)propyl) (S)-pyrrolidine-1,2-dicarboxylate]
11 | 5.18 |  |  |  | O=C(OCCCc1ccccc1)[C@@H]1CCCN1C(=O)OCc1ccccc1 [Compound 13, 1-benzyl 2-(3-phenylpropyl) (S)-pyrrolidine-1,2-dicarboxylate]
12 | 4.72 | decreased activity |  |  | O=C(OCCc1ccccc1)[C@@H]1CCCN1C(=O)OCc1ccccc1 [Compound 14, 1-benzyl 2-phenethyl (S)-pyrrolidine-1,2-dicarboxylate]
13 | 4.47 | decreased activity |  |  | O=C(OCc1ccccc1)[C@@H]1CCCN1C(=O)OCc1ccccc1 [Compound 15, Dibenzyl (S)-pyrrolidine-1,2-dicarboxylate]
14 |  |  |  | did not affect the proteasome activity | tRpt6: 10-residue peptide derived from C-terminal fragment of Rpt6 (KNMSIKKLWK) [reference compound]
